From patent US6855812B2, “P-glycoproteins and uses thereof” (Becton, Dickinson and Company, priority 2001, dated 2005)

Tested on: rhesus monkey PGP
Experiment: Polarization of vinblastine transport in Transwells, rhesus monkey PGP transfected LLC-PK1 cell monolayers
Conditions: PGP transfected LLC-PK1 cells, compared with control cells; vinblastine 0.1 μM
Description: Rhesus monkey PGP cDNA (SEQ ID NO:1) is introduced into a clonal population of LLC-PK1 cells in a vector that confers resistance to hygromycin B. LLC-PK1 cells are obtained from the American Type Culture Collections and are propagated in Medium 199 supplemented to 7% with fetal bovine serum. LLC-PK1 cells are recloned prior to transfection in order to assure homogeneity of the cell population. Briefly, rhesus monkey PGP cDNA is incorporated into the p222CMV vector. […] The PGP cDNA is under the control of the cytomegalovirus (CMV) immediate early promoter. The vector confers resistance to hygromycin B. Cells (in 0.4 mL) and DNA (10 to 20 μg) were transfected by electroporation using a BTX Electro cell manipulator model 600 using a 2 mm gap cell, 100V, 2500 μF capacitance and 72 ohm resistance. […] Expression of PGP is measured by the polarization of vinblastine (0.1 μM) transport in Transwells™.
LLC-PK1 cell based transport studies are conducted in 24 well Transwells™ (Corning Costar, Catalog number 3415). […] Transport is measured under sink conditions in both the apical to basolateral (A to B) and basolateral to apical (B to A) directions. […] Quantitation of the amount of compound transported is by liquid scintillation counting (vinblastine) or HPLC with UV or mass spectrometric detection.
Functional expression of rhesus monkey PGP is measured by the polarization of transport of vinblastine.

CC[C@]1(O)C[C@@H]2CN(CCc3c([nH]c4ccccc34)[C@@](C(=O)OC)(c3cc4c(cc3OC)N(C)[C@H]3[C@@](O)(C(=O)OC)[C@H](OC(C)=O)[C@]5(CC)C=CCN6CC[C@]43[C@@H]65)C2)C1 [vinblastine]
B to A/A to B ratio (polarization of transport): much higher ratio
